Data from US9683018B2, “Disulfide cyclic polypeptides for the treatment of heart failure” (priority 2013, dated 2017).
Bridge positions count the residues as written; N and C are the ends. Square brackets hold non-standard residues; d marks the D form. Peptide text beside a SMILES is read from it. * marks the point of attachment. pGlu = O=C1CC[C@@H](C(=O)O)N1; NHPhenethyl = c1ccc(CCN*)cc1; Nle = CCCC[C@H](N)C(=O)O; Aib = CC(C)(N)C(=O)O

Columns and labels:
hAPJ = biological target: T1, hAPJ (Homo sapiens, UniProt P35414); assay: hAPJ Calcium Flux Assay; format: cell-based; conditions: Chem-5 APJ stable cells, FLIPR calcium flux; read-out: hAPJ Ca2+ Flux EC50
T1 sequence (P35414 1-380): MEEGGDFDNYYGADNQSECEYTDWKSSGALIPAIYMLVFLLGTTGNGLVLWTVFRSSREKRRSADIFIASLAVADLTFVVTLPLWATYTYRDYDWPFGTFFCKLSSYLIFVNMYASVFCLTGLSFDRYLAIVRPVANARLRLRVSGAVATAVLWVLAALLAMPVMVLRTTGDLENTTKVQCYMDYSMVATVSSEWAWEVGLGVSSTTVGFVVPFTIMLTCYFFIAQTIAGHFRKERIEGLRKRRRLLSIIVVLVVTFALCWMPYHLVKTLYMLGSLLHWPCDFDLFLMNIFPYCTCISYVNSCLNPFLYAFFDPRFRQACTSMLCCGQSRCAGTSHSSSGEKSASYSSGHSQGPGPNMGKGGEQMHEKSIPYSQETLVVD
Procedure: Chem-5 APJ stable cells (Millipore # HTS068C) were plated in 384-well format with 10,000 cells/well in 25 ul growth media, then grown 24 hours in a 37° C. tissue culture incubator. One hour before the assay, 25 ul/well FLIPR Calcium 4 dye (Molecular Devices R8142) with 2.5 mM probenecid was added, and cells were incubated one hour in a 37° C. tissue culture incubator. Peptides were solubilized in HBSS, HEPES & 0.1% BSA buffer, and serially-diluted 10-fold, from 50 uM to 5 pM, in triplicate. FLIPR Tetra was used to add peptide to the cells with dye (1:5, for final peptide concentrations ranging from 10 uM to 1 pM). FLIPR dye inside the cells emitted fluorescence after binding to calcium, while fluorescence from outside the cells was masked. Fluorescence was measured using 470-495 excitation and 515-575 emission wavelengths on the FLIPR Tetra. Readings were done for 3 minutes total, beginning 10 seconds before the peptide addition. Maximum-minimum values were calculated and plotted for each peptide concentration, and GraphPad prism software was used to calculate EC50 values at the curve inflection points, for calcium flux stimulation by peptides.

[1] = Plasma stability assay (LC-MS); format: in vitro ADME; conditions: male, Sprague-Dawley, heparinized rat plasma, 37° C., Table 3, read-out: Plasma stability t½
Procedure: Working solution: 1 mg/mL test article is prepared in Milli-Q water
Extraction solution: Methanol:Acetonitrile:Water (1:1:1) with 0.1% Formic Acid and 400 ng/mL Glyburide.
Plasma: Male Sprague-Dawley rat plasma (with sodium heparin), purchased from Bioreclamation LLC (Liverpool, N.Y.).
Test article was prepared in one of the following biological matrices: heparinized rat plasma, heparinized rat whole blood or lung homogenate. The plasma and whole blood sample was prepared at 5000 ng/mL by adding 5 uL of 1 mg/mL Working solution to 995 uL of rat plasma or whole blood. Lung homogenate samples were prepared by diluting lung homogenate to 1 mg/ml protein concentration with phosphate buffered saline (PBS), followed by addition of 5 uL Working solution to 995 uL diluted lung homogenate. The samples were incubated at 37° C. with gentle shaking (65˜75 rpm) in a water bath incubator. At times 0 min, 5 min, 15 min, 30 min, 60 min, 120 and 240 min, 25 uL aliquots of incubation samples were transferred to 96-well plate and immediately protein precipitated using 150 uL of Extraction solution. After completion of incubation experiment, the sample plate was centrifuged at 4000 rpm at 4° C. for 10 minutes. Afterwards, a pipetting device (Tecan Temo) was used to transfer the supernatants to another plate and add 50 uL of water to all samples. The plate was vortexed prior to LC-MS analysis.
LC-MS Analysis of stability samples
HPLC: Agilent 1290 HPLC with autosampler
Column: MAC-MOD ACE C18, 3 μm, 30 mm×2.1 mm i.d.
Mobile phase A: 0.1% Formic acid in acetonitrile
Mobile phase B: 0.1% Formic acid in water

in vitro = conditions: rat, plasma
Procedure: The calcium flux protocol described above was followed, with the following changes. The peptides were also incubated with 5% rat plasma (Bioreclamation # [sequence]-M, Na Heparin-treated). Readings were taken at time points t0 and t24 hrs, after incubation in a 37° C. tissue culture incubator. Peptide plasma half-life in minutes was estimated by calculating the following:
2) Calculate slope of value above and

[2] = Surrogate Activity based Plasma stability t½
[3] = Surrogate activity-based Plasma stability t½

Row | Compound | EC50 (hAPJ) [nM] | half-life at 5000 ng/mL [1] [h] | half-life (in vitro; [2]) [h] | half-life (in vitro; [3]) [h]
1 | CCCC[C@@H]1NC(=O)[C@@H]2CCCN2C(=O)CNC(=O)[C@H](CCCCN)NC(=O)[C@H](Cc2c[nH]cn2)NC(=O)[C@H](CO)NC(=O)[C@@H](NC(=O)[C@H](CCCNC(=N)N)NC(=O)[C@@H]2CCCN2C(=O)[C@H](CCCNC(=N)N)NC(=O)[C@@H]2CCC(=O)N2)CSSC[C@@H](C(=O)N[C@@H](Cc2ccccc2)C(=O)O)NC1=O [Example 1, pE-R-P-R-C*-S-H-K-G-P-Nle-C*-F-OH] ([pGlu]RPRCSHKGP[Nle]CF-OH; disulfide 5-12) | 0.74 | 2.82 | 2.12 | 2.12
2 | CCCC[C@@H]1NC(=O)[C@@H]2CCCN2C(=O)CNC(=O)[C@H](CCCCN)NC(=O)[C@@H](NC(=O)[C@H](CO)NC(=O)[C@H](CC(C)C)NC(=O)[C@H](CCCNC(=N)N)NC(=O)[C@@H]2CCCN2C(=O)[C@H](CCCNC(=N)N)NC(=O)[C@@H]2CCC(=O)N2)CSSC[C@@H](C(=O)N[C@@H](Cc2ccccc2)C(=O)O)NC1=O [Example 3, pE-R-P-R-L-S-C*-K-G-P-Nle-C*-F-OH] ([pGlu]RPRLSCKGP[Nle]CF-OH; disulfide 7-12) | 128 | 1.35 | 0.433 | 0.433
3 | CCCC[C@@H]1NC(=O)[C@@H]2CCCN2C(=O)[C@@H](NC(=O)[C@H](CCCCN)NC(=O)C(C)(C)NC(=O)[C@H](CO)NC(=O)[C@H](CC(C)C)NC(=O)[C@H](CCCNC(=N)N)NC(=O)[C@@H]2CCCN2C(=O)[C@H](CCCNC(=N)N)NC(=O)[C@@H]2CCC(=O)N2)CSSC[C@@H](C(=O)NCCc2ccccc2)NC1=O [Example 15, pE-R-P-R-L-S-Aib-K-C*-P-Nle-C*-NH(Phenethyl)] ([pGlu]RPRLS[Aib]KCP[Nle]C-NHPhenethyl; disulfide 9-12) | 4 | 0.7 | 0.683 | 0.683

Results, then the compound that gave them:

Row | EC50 (hAPJ) [nM] | half-life at 5000 ng/mL [1] [h] | half-life (in vitro; [2]) [h] | half-life (in vitro; [3]) [h] | Compound
4 | 0.81 | 1.08 | 0.483 | 0.483 | CCCC[C@@H]1NC(=O)[C@@H]2CCCN2C(=O)[C@@H](NC(=O)[C@H](CCCCN)NC(=O)[C@H](Cc2c[nH]cn2)NC(=O)[C@H](CO)NC(=O)[C@H](CC(C)C)NC(=O)[C@H](CCCNC(=N)N)NC(=O)[C@@H]2CCCN2C(=O)[C@H](CCCNC(=N)N)NC(=O)[C@@H]2CCC(=O)N2)CSSC[C@@H](C(=O)N[C@@H](Cc2ccccc2)C(=O)O)NC1=O [Example 14, pE-R-P-R-L-S-H-K-C*-P-Nle-C*-F-OH] ([pGlu]RPRLSHKCP[Nle]CF-OH; disulfide 9-12)
5 | 1.9 | 8.42 | 15.1 | 15.1 | CCCC[C@@H]1NC(=O)[C@@H]2CCCN2C(=O)[C@@H](NC(=O)[C@H](CCCCN)NC(=O)[C@H](Cc2c[nH]cn2)NC(=O)[C@@H](C)NC(=O)[C@H](CC(C)C)NC(=O)[C@H](CCCNC(=N)N)NC(=O)[C@@H]2CCCN2C(=O)[C@H](CCCNC(=N)N)NC(=O)[C@@H]2CCC(=O)N2)CSSC[C@@H](C(=O)N[C@H](Cc2ccccc2)C(=O)O)NC1=O [Example 17, pE-R-P-R-L-a-H-K-C*-P-Nle-C*-f-OH] ([pGlu]RPRL[dA]HKCP[Nle]C[dF]-OH; disulfide 9-12)
6 | 9.7 | – | – | 8.88 | CCCC[C@@H]1NC(=O)[C@@H]2CCCN2C(=O)[C@@H](NC(=O)[C@H](CCCCN)NC(=O)[C@H](Cc2c[nH]cn2)NC(=O)[C@@H](CO)NC(=O)[C@H](CC(C)C)NC(=O)[C@H](CCCNC(=N)N)NC(=O)[C@@H]2CCCN2C(=O)[C@H](CCCNC(=N)N)NC(=O)[C@@H]2CCC(=O)N2)CSSC[C@@H](C(=O)N[C@H](Cc2ccccc2)C(=O)O)NC1=O [Example 21, pE-R-P-R-L-s-H-K-C*-P-Nle-C*-f-OH] ([pGlu]RPRL[dS]HKCP[Nle]C[dF]-OH; disulfide 9-12)
